Measurements reported in publication PMC4138267 (Nature chemical biology, 2014).
Read-outs that look alike come from different tables or passages of the source. Blank lines part the entries; values can stand above or below the molecule they belong to.

Legend:
Format in all cases: cell-based
[1] = biological target: human D2 dopamine receptor (D2LR) (Homo sapiens, UniProt P14416); experiment: ERK1/2 phosphorylation assay, Flp-In CHO cells expressing D2LR; settings: for Logαβ: cooperativity with dopamine
human D2 dopamine receptor (D2LR), sequence (P14416 whole entry, the tested form may be a part): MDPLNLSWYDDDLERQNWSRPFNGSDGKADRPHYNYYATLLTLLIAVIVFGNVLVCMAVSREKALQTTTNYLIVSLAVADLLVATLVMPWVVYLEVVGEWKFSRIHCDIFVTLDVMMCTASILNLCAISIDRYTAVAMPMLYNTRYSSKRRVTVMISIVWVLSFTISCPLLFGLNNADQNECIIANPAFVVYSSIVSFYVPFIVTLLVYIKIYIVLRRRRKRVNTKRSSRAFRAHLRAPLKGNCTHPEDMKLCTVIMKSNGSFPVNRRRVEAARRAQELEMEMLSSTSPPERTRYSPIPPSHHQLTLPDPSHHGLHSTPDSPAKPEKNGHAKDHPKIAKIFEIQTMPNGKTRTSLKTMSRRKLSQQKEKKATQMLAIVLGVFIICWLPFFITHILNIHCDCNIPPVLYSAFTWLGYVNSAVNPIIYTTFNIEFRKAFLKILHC

[2] = biological target: D2R dimer: WT D2R (protomer A) + D2R-Gqi5 fusion (protomer B) (UniProt P14416+P21279); experiment: Aequorin functional complementation assay, WT:WT pair; settings: WT:WT complement pair; 100 µM dopamine
[3] = biological target: D2R dimer: WT D2R (protomer A) + D2-Asp114^3.32Ala-Gqi5 (protomer B) (Homo sapiens, UniProt P14416)
D2R dimer: WT D2R (protomer A) + D2-Asp114^3.32Ala-Gqi5 (protomer B), sequence (P14416 1-414 isoform P14416-2): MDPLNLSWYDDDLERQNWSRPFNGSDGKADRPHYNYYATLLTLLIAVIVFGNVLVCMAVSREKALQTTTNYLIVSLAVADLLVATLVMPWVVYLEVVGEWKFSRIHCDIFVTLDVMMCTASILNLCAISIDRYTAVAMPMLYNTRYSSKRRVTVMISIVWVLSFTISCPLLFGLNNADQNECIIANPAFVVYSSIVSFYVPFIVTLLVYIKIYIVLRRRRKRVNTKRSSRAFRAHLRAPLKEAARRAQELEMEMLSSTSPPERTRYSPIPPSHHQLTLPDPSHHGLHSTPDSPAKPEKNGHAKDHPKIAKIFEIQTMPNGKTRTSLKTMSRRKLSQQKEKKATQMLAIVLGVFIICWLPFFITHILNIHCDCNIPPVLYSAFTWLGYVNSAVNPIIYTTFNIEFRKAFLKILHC

Val91^2.61Ala D2LR = Val91^2.61Ala D2LR (Homo sapiens, UniProt P14416, V91A); settings: pERK1/2, interaction with dopamine
Val91^2.61Ala D2LR, sequence (P14416 whole entry V91A): as the sequence (P14416 whole entry, the tested form may be a part) above, with V91A counted along it

[4] = biological target: N-terminal c-myc-tagged WT D2LR (Homo sapiens, UniProt P14416); experiment: ERK1/2 phosphorylation assay, Flp-In CHO cells, c-myc-tagged WT D2LR; settings: pERK1/2, interaction with dopamine
N-terminal c-myc-tagged WT D2LR, sequence (P14416 whole entry): as the sequence (P14416 whole entry, the tested form may be a part) above

[5] = KB, pERK1/2, probe ligand dopamine

Compound: N#Cc1ccc2c(c1)CNCC2 [THIQ7C, 1,2,3,4-tetrahydroisoquinoline-7-carbonitrile]
Kb [1, 5]: 2.51 µM
Logαβ ([1]; pERK1/2): 1.03 ± 0.18
fold lower affinity than SB269652 ([1]; pERK1/2, probe ligand dopamine): 17 fold

Kb [1]: 0.0234 µM
Schild Slope ([1]; pERK1/2, probe ligand dopamine): 1.06 ± 0.04
Compound: CC(=O)N[C@H]1CC[C@H](CCN2CCc3ccc(C#N)cc3C2)CC1 [MIPS1059, N-((trans)-4-(2-(7-cyano-3,4-dihydroisoquinolin-2(1H)yl)ethyl)cyclohexyl)acetamide]

Compound: CCCN1CCc2ccc(C#N)cc2C1 [MIPS1071, 2-propyl-1,2,3,4-tetrahydroisoquinoline-7-carbonitrile]
Kb ([1]; KB, pERK1/2, probe ligand S-3PPP): 0.363 µM
Kb ([1]; KB, pERK1/2, probe ligand aripiprazole): 0.575 µM
Kb [1, 5]: 0.38 µM
Logαβ ([1]; pERK1/2): 1.00 ± 0.08
Schild Slope ([1]; pERK1/2, probe ligand S-3PPP): 1.11 ± 0.18
Schild Slope ([1]; pERK1/2, probe ligand aripiprazole): 0.94 ± 0.18

extent of antagonism of dopamine [2]: completely inhibited
extent of antagonism of dopamine [3]: completely antagonized
Compound: CCN1CCCC1CNC(=O)c1cc(S(N)(=O)=O)ccc1OC (stereo not drawn) [sulpiride]

Kb (Val91^2.61Ala D2LR): 0.891 µM
Kb [4]: 0.195 µM
Compound: N#Cc1ccc2c(c1)CCN(CC[C@H]1CC[C@@H](NC(=O)c3cc4ccccc4[nH]3)CC1)C2 [MIPS1217]
